Experiments:
[1] = test system: corneal endothelial wound; assay: Rabbit corneal endothelial wound model, topical instillation (Example 1); assay type: in vivo; details: 10 mM instillation, 6 times a day, 46 hours after wound creation
Experimental: In this Example, 0.95 mM (0.03 w/v%) compound (I) instillation and 0.32 mM (0.01 w/v%) compound (I) instillation obtained by diluting the above instillation with the above-mentioned vehicle were used.
As a positive control substances, Y-27632 dihydrochloride (Wako Pure Chemical Industries, Co., Ltd., Cat. #253-00513) and fasudil hydrochloride hydrate injection (Eril (registered trade mark) drip intravenous injection, Asahi Kasei Pharma) were purchased, and Y-27632 and Fasudil were each adjusted to 10 mM with phosphate-buffered saline (PBS, Invitrogen, Cat. #14190). In addition, PBS was used as a negative control substance.
Male Japanese white rabbits (body weight 2.5-3.0 kg, 21 rabbits) were purchased from Biotek Co., Ltd. and used. They are kept in individual cages at 23±3° C. temperature, at 55±10% humidity and 12 hours artificial light cycle (lighting on; 8:00 a.m., lighting off; 8:00 p.m.). One hundred grams of solid food (Labo R stock; Nosan Corp.) are provided daily to each animal. Water is supplied by automatic watering apparatus.
3. Excision of Nictitating Membrane of Animal Before starting the test, the nictitating membrane of both eyes of the animal was excised. To be specific, each animal was set in a positioner, and the ocular surface was topically anesthetized by instillation of a topical anesthesia (Benoxil instillation 0.4%, Santen Pharmaceutical Co., Ltd.). Then, the root position of the nictitating membrane was pressed with a clamp for 30 sec, and compressing mark was cut with scissors. After excision of the nictitating membrane, the antibiotic ointment (tarivid eye ointment, Santen Pharmaceutical Co., Ltd.) was instilled to prevent infection. After 4 days from the excision of the nictitating membrane, animals confirmed to have no abnormality in the external eye including the excised site were used.
The corneal thickness of the right eye of each animal was measured with an ultrasonic pachymeter (manufactured by DGH Technologies Inc., DGH-500), and the animals were divided into 4 groups such that the corneal thickness of each group was equal. The animals used for each group were as follows. • 10 mM Y-27632 group=5 eyes • 0.32 mM compound (I) group=5 eyes • 0.95 mM compound (I) group=6 eyes • 10 mM Fasudil group=5 eyes • PBS group=21 eyes (left eye)
The animals were sytemically anesthetized by intramuscular administration of Ketalar muscular injection ([…], DAIICHI SANKYO COMPANY, LIMITED., 0.6 ml) and Celactal 2% Injection (Bayer, Ltd., 0.25 ml). Then, Benoxil instillation 0.4% (Santen Pharmaceutical Co., Ltd., one drop) was instilled and the eye was opened using a lid speculum.
A 7-mm diameter stainless dowel that had been cooled in liquid nitrogen was placed on the central cornea of both eyes of 21 animals for 15 sec. to produce an ice ball in the anterior chamber and dissociate corneal endothelial cells, whereby a corneal endothelial wound was produced.
For topical instillation, after wound creation, compound (I) instillation, Y-27632 instillation or Fasudil instillation was instilled to the right eye, and PBS was instilled to the left eye 6 times a day (4 times on the day of wound production) at 50 μL per instillation. Administration interval in one day was 2 hours. […]

[2] = test system: cultured monkey corneal endothelial cells; details: in vitro; cited from earlier work

## O=S(=O)(c1cccc2cnccc12)N1CCCNCC1 [Fasudil]
[1]
  area of the unrepaired wound site (corneal endothelium wound area): 1.7 mm^2
[2]
  apoptosis: suppression of apoptosis
  cell adhesion: promotion of cell adhesion
  cell cycle: promotion of cell cycle
